What was measured:
[1] = molecular target: T1, lipase type II from porcine pancreas (Sus scrofa, UniProt P00591); assay: lipase inhibition assay; type: biochemical; details: maximal inhibition reached
T1 construct: purchased Sigma-Aldrich (Madrid, Spain); host or cells: porcine pancreas
T1 sequence (P00591 1-450): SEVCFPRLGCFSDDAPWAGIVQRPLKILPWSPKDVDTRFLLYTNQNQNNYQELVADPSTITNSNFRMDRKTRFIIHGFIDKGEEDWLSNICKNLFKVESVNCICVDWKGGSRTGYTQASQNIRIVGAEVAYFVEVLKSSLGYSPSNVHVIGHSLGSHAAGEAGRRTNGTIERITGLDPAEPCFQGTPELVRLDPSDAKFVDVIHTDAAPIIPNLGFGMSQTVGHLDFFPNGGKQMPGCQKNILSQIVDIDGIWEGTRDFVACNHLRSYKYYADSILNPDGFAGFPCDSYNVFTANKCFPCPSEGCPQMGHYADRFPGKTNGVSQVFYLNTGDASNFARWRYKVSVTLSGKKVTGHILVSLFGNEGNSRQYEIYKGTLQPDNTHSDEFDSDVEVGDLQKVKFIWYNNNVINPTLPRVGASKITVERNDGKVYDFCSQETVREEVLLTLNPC
Method: The lipase inhibition assay was based on a previous protocol. […] Then, 20 µL of pNPB (10 mM in ethanol) was added to each well and incubated for another 15 min at 37 °C. Blanks and control wells were made.

[2] = ABTS radical cation decolorization assay; details: concentration causing 50% decrease in initial ABTS concentration
Method: (§1) The in vitro antioxidant activity of the different samples was assessed through three assays by means of standard methods using a SPECTROstar Omega (BMG LABTECH GmbH, Ortenberg, Germany) microplate reader. For the preparation of the stock solution, around 10 ± 1 mg of the different samples were diluted in 1 mL of methanol in an Eppendorf. Then, 100 µL of this stocked solution was diluted with 900 µL of methanol for the analyses. All analyses were conducted at least twice.
The total radical scavenging activity was measured using 2, 2′-azino-bis (3-ethylbenzothiazoline-6-sulphonic acid) (ABTS) assay. The ABTS^•+ solution was freshly prepared by the oxidation of ABTS (10 mg) by MnO2 (0.75 g) in the presence of distilled water (4 mL), followed by 30 min of incubation away from light at room temperature. The working solution was obtained by filtration and dilution with methanol of the previous mixture to give an absorbance of AU 1 at 734 nm. The extract concentrations used were the same as for the DPPH assay, and 200 µL of the ABTS solution was added to the wells. After 15 min of incubation, the absorbance of each well was determined at 734 nm. Trolox (6-hydroxy-2,5,7,8-tetramethylchroman-2-carboxylic acid) was the reference compound used in both DPPH and ABTS assays. […]

[3] = DPPH free radical scavenging assay; details: concentration causing 50% decrease in initial DPPH concentration
Method: as §1
The free radical scavenging activity was evaluated using 1, 1-diphenyl-2-picrylhydrazyl (DPPH) on microplate analytical assay, as described by Beghelli et al. and Censi et al.. […] The absorbance of the wells was measured at 517 nm with a microplate reader against a blank prepared using methanol in addition to the DPPH reagent to get rid of any inherent solvent activity.
The total radical scavenging activity was measured using 2, 2′-azino-bis (3-ethylbenzothiazoline-6-sulphonic acid) (ABTS) assay. […] The working solution was obtained by filtration and dilution with methanol of the previous mixture to give an absorbance of AU 1 at 734 nm. […] After 15 min of incubation, the absorbance of each well was determined at 734 nm. […]

Row | Structure (SMILES) | lipase inhibition reached [1] [%] | ABTS IC50 [2] [µg/mL] | DPPH IC50 [3] [µg/mL]
1 | CCCCCCCCCCC[C@@H](C[C@@H]1OC(=O)[C@H]1CCCCCC)OC(=O)[C@H](CC(C)C)NC=O [Orlistat] | 75 |  | 
2 | Cc1c(C)c2c(c(C)c1O)CCC(C)(C(=O)O)O2 (stereo not drawn) [Trolox, 6-hydroxy-2,5,7,8-tetramethylchroman-2-carboxylic acid] |  | 4.7 ± 0.2 | 5.3 ± 1.1

From publication PMC7020459, “Antioxidant and Enzyme Inhibitory Properties of the Polyphenolic-Rich Extract from an Ancient Apple Variety of Central Italy (Mela Rosa dei Monti Sibillini)” (Plants, 2019)
